Test results as given in patent publication US9586951B2 (FUJIFILM Corporation, priority 2013, dated 2017).
Where a name gives a salt, the structure may show the parent alone.

molecular target: T1, ATM (Homo sapiens, UniProt Q13315); test: ATM inhibition test (phosphorylation of Chk2 generated by ionizing radiation, AlphaScreen SureFire); assay type: cell-based; conditions: phosphorylated Chk2 in NCI-H460 cells, ionizing radiation 8Gy, 1 hour after test compound treatment; read-out: ATM inhibitory activity
T1 construct: detecting phosphorylation of Chk2 in a human non-small cell lung cancer cell line NCI-H460 (ATCC company); host or cells: NCI-H460 human non-small cell lung cancer cells
Summary of the method: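 Human NCI-H460 lung cancer cells were treated with compound for 1 h, then irradiated at 8Gy and incubated 1 h at 37° C. Phospho-Chk2 was quantified by AlphaScreen SureFire; inhibition % was normalised between irradiated untreated and non-irradiated untreated wells.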

T1 sequence (Q13315 whole entry): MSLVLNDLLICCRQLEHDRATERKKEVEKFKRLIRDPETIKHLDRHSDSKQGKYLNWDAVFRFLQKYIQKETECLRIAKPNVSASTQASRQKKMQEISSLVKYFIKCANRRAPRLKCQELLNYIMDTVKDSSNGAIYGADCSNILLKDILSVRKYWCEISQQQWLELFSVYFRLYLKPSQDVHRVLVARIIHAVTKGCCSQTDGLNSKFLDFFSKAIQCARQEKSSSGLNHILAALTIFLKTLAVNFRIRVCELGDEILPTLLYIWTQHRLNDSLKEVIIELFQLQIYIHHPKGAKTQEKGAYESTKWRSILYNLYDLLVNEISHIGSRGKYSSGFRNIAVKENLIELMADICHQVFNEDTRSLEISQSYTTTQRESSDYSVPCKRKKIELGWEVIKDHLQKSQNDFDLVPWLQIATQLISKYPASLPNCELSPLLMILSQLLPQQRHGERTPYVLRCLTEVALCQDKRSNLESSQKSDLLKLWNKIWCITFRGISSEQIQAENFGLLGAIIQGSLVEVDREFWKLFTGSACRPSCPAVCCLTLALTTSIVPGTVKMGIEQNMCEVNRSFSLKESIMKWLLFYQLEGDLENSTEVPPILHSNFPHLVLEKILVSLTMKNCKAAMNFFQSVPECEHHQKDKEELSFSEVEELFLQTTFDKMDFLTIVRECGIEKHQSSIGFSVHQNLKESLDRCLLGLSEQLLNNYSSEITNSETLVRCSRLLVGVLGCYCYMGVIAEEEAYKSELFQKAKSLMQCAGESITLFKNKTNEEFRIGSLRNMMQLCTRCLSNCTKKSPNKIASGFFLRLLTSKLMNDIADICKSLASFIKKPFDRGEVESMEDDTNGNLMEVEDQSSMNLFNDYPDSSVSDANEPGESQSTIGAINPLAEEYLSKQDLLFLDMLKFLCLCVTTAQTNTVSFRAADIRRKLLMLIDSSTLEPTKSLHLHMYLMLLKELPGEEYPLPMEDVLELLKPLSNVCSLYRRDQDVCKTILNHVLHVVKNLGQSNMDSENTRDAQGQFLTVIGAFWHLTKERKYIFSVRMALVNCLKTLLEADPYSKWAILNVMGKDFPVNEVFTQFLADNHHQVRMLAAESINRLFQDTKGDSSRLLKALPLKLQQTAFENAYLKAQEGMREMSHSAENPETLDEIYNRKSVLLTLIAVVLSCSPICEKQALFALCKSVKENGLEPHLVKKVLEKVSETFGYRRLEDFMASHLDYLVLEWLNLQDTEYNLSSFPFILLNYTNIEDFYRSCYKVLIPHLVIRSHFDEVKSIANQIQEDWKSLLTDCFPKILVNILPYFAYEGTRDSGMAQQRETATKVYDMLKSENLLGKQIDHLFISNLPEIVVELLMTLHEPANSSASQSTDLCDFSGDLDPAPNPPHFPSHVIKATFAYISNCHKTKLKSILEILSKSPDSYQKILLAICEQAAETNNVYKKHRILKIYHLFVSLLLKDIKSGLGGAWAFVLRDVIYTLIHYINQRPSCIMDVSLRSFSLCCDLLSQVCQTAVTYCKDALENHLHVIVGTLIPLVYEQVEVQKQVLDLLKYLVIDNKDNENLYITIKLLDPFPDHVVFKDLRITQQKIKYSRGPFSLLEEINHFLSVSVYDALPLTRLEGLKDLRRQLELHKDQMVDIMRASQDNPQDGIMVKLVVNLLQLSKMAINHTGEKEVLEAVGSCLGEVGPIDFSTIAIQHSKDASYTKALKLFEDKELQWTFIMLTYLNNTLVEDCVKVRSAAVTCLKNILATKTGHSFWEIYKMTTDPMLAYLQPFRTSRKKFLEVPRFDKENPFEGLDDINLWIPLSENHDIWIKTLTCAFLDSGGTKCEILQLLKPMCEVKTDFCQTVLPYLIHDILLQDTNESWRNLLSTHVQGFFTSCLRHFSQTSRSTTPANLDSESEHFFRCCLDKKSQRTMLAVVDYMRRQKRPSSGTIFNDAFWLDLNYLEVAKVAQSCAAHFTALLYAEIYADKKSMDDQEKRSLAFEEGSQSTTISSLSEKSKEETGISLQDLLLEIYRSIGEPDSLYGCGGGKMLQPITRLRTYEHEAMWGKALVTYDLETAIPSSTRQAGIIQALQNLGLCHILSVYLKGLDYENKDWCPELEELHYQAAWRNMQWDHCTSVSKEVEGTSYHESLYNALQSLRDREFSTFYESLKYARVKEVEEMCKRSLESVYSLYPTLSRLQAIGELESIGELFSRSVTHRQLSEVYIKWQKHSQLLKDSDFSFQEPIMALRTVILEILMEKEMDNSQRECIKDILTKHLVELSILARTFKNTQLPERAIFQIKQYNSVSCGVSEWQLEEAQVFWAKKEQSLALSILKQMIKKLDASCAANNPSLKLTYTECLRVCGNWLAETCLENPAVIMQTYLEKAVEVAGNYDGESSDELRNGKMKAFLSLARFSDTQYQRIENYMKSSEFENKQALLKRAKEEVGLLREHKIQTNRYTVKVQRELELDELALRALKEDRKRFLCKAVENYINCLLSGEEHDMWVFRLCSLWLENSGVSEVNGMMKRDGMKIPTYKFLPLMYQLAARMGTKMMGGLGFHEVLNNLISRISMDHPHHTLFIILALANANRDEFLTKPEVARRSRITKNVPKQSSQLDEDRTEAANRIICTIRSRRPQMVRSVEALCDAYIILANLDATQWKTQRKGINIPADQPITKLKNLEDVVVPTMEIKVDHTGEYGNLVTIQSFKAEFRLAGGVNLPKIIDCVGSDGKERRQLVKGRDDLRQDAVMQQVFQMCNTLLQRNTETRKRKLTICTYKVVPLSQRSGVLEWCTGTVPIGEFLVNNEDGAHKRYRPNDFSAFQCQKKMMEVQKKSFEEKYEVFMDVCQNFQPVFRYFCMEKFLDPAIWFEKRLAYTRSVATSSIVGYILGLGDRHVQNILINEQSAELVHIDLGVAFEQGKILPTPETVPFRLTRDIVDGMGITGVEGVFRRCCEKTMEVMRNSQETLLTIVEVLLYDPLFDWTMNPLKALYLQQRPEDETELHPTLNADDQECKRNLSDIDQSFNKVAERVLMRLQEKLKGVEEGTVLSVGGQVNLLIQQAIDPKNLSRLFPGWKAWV

Row | Structure (SMILES) | IC50 [nM]
1 | Cc1cccc(CCN2CCC(Nc3ccc4c(c3)Cc3cccc(-c5cc(N6CCOCC6)cc(=O)[nH]5)c3O4)CC2)c1 [Example 2-30-8, 6-(7-((1-(3-Methylphenethyl)piperidin-4-yl)amino)-9H-xanthen-4-yl)-4-morpholino pyridin-2 (1H)-one] | 500 to 2000
2 | COc1ccccc1CCN1CCC(Nc2ccc3c(c2)Cc2cccc(-c4cc(N5CCOCC5)cc(=O)[nH]4)c2O3)CC1 [Example 2-30-10, 6-(7-((1-(2-Methoxyphenethyl)piperidin-4-yl)amino)-9H-xanthen-4-yl)-4-morpholino pyridin-2(1H)-one] | 500 to 2000
3 | O=c1cc(N2CCOCC2)cc(-c2cccc3c2Oc2ccc(NC4CCN(CCCF)CC4)cc2C3)[nH]1 [Example 2-30-12, 6-(7-((1-(3-Fluoropropyl)piperidin-4-yl)amino)-9H-xanthen-4-yl)-4-morpholino pyridin-2(1H)-one] | 500 to 2000
4 | COCCCN1CCC(Nc2ccc3c(c2)Cc2cccc(-c4cc(N5CCOCC5)cc(=O)[nH]4)c2O3)CC1 [Example 2-30-15, 6-(7-((1-(3-Methoxypropyl)piperidin-4-yl)amino)-9H-xanthen-4-yl)-4-morpholino pyridin-2 (1H)-one] | 500 to 2000
5 | CC(C)Oc1ccc(CCN2CCC(Nc3ccc4c(c3)Cc3cccc(-c5cc(N6CCOCC6)cc(=O)[nH]5)c3O4)CC2)cc1 [Example 2-30-18, 6-(7-((1-(4-Isopropoxyphenethyl)piperidin-4-yl)amino)-9H-xanthen-4-yl)-4-morpholino pyridin-2(1H)-one] | 100 to 500
6 | N#Cc1ccc(CCN2CCC(Nc3ccc4c(c3)Cc3cccc(-c5cc(N6CCOCC6)cc(=O)[nH]5)c3O4)CC2)cc1 [Example 2-30-19, 4-(2-(4-((5-(4-Morpholino-6-oxo-1,6-dihydropyridin-2-yl)-9H-xanthen-2-yl)amino)piperidin-1-yl)ethyl) benzonitrile] | 500 to 2000
7 | COCc1ccc(CCN2CCC(Nc3ccc4c(c3)Cc3cccc(-c5cc(N6CCOCC6)cc(=O)[nH]5)c3O4)CC2)cc1 [Example 2-30-20, 6-(7-((1-(4-(Methoxymethyl)phenethyl)piperidin-4-yl)amino)-9H-xanthen-4-yl)-4-morpholino pyridin-2(1H)-one] | 500 to 2000
8 | Nc1ccc(CCN2CCC(Nc3ccc4c(c3)Cc3cccc(-c5cc(N6CCOCC6)cc(=O)[nH]5)c3O4)CC2)cc1 [Example 2-31, hydrochloride of 6-(7-((1-(4-aminophenethyl)piperidin-4-yl)amino)-9H-xanthen-4-yl)-4-morpholinopyridin-2(1H)-one] | 100 to 500
9 | CC(=O)Nc1ccc(CCN2CCC(Nc3ccc4c(c3)Cc3cccc(-c5cc(N6CCOCC6)cc(=O)[nH]5)c3O4)CC2)cc1 [Example 2-32, N-(4-(2-(4-((5-(4-morpholino-6-oxo-1,6-dihydropyridin-2-yl)-9H-xanthen-2-yl)amino)piperidin-1-yl)ethyl)phenyl)acetamide] | 100 to 500
10 | O=c1cc(N2CCOCC2)cc(-c2cccc3c2Oc2ccc(NC4CCN(CC(F)(F)F)CC4)cc2C3)[nH]1 [Example 2-34, 4-Morpholino-6-(7-((1-(2,2,2-trifluoroethyl)piperidin-4-yl)amino)-9H-xanthen-4-yl)pyridin-2(1H)-one] | 100 to 500
11 | COc1ccc(CNc2ccc3c(c2)Cc2cccc(-c4cc(N5CCOCC5)cc(=O)[nH]4)c2O3)cc1 [Example 2-40, 6-(7-((4-methoxybenzyl)amino)-9H-xanthen-4-yl)-4-morpholinopyridin-2(1H)-one] | 100 to 500
12 | COc1cncc(CNc2ccc3c(c2)Cc2ccnc(-c4cc(N5CCOCC5)cc(=O)[nH]4)c2O3)c1 [Example 2-41-1, 6-(7-(((5-Methoxypyridin-3-yl)methyl)amino)-5H-chromeno[2,3-c]pyridin-1-yl)-4-morpholinopyridin-2(1H)-one] | 100 to 500
13 | COc1ccc(CCN2CCC(Nc3ccc4c(c3)Cc3ccnc(-c5cc(N6CCOCC6)cc(=O)[nH]5)c3O4)CC2)cc1 [Example 2-41-5, 6-(7-((1-(4-Methoxyphenethyl)piperidin-4-yl)amino)-5H-chromeno[2,3-c]pyridin-1-yl)-4-morpholino pyridin-2(1H)-one] | 100 to 500
14 | O=c1cc(N2CCOCC2)cc(-c2nccc3c2Oc2ccc(NCc4cc(C5CC5)ccn4)cc2C3)[nH]1 [Example 2-41-6, 6-(7-(((4-Cyclopropylpyridin-2-yl)methyl)amino)-5H-chromeno[2,3-c]pyridin-1-yl)-4-morpliolino pyridin-2 (1H)-one] | 100 to 500
15 | Cc1ccnc(CNc2ccc3c(c2)Cc2ccnc(-c4cc(N5CCOCC5)cc(=O)[nH]4)c2O3)c1 [Example 2-41-7, 6-(7-(((4-Methylpyridin-2-yl)methyl)amino)-5H-chromeno [2,3-c]pyridin-1-yl)-4-morpholino pyridin-2(1H)-one] | 100 to 500
16 | O=c1cc(N2CCOCC2)cc(-c2nccc3c2Oc2ccc(NCc4cccc(Cl)n4)cc2C3)[nH]1 [Example 2-41-8, 6-(7-(((6-Chloropyridin-2-yl)methlyl)anlino)-5H-chromeno [2,3-c]pyridin-1-yl)-4-morpholino pyridin-2(1H)-one] | 100 to 500

More lines, now with the values ahead:

Row | IC50 [nM] | Structure (SMILES)
17 | 100 to 500 | O=c1cc(N2CCOCC2)cc(-c2cccc3c2Oc2ccc(NC4CCN(CCc5ccncc5)CC4)cc2C3)[nH]1 [Example 2-30-7, 4-Morpholino-6-(7-((1-(2-(pyridin-4-yl)ethyl)piperidin-4-yl)amino)-9H-xanthen-4-yl)pyridin-2(1H)-one]
18 | 100 to 500 | O=c1cc(N2CCOCC2)cc(-c2cccc3c2Oc2ccc(NC4CCN(CCc5ccccc5Cl)CC4)cc2C3)[nH]1 [Example 2-30-9, 6-(7-((1-(2-Chlorophenethyl)piperidin-4-yl)amino)-9H-xanthen-4-yl)-4-morpholino pyridin-2(1H)-one]
19 | 100 to 500 | COc1cccc(CCN2CCC(Nc3ccc4c(c3)Cc3cccc(-c5cc(N6CCOCC6)cc(=O)[nH]5)c3O4)CC2)c1 [Example 2-30-11, 6-(7-((1-(3-Methoxyphenethyl)piperidin-4-yl)amino)-9H-xanthen-4-yl)-4-morpholino pyridin-2 (1H)-one]
20 | 100 to 500 | O=c1cc(N2CCOCC2)cc(-c2cccc3c2Oc2ccc(NC4CCN(CC(O)c5ccccc5)CC4)cc2C3)[nH]1 (centres unmarked) [Example 2-30-13, 6-(7-((1-(2-Hydroxy-2-phenylethyl)piperidin-4-yl)amino)-9H-xanthen-4-yl)-4-morpholino pyridin-2(1H)-one]
21 | 100 to 500 | O=c1cc(N2CCOCC2)cc(-c2cccc3c2Oc2ccc(NC4CCN(CCc5ccc(F)cc5)CC4)cc2C3)[nH]1 [Example 2-30-14, 6-(7-((1-(4-Fluorophenethyl)piperidin-4-yl)amino)-9H-xanthen-4-yl)-4-morpholino pyridin-2(1H)-one]
22 | 100 to 500 | COC(=O)CCCCN1CCC(Nc2ccc3c(c2)Cc2cccc(-c4cc(N5CCOCC5)cc(=O)[nH]4)c2O3)CC1 [Example 2-30-16, Methyl 5-(4-((5-(4-morpholino-6-oxo-1,6-dihydropyridin-2-yl)-9H-xanthen-2-yl)amino)piperidin-1-yl)pentanoate]
23 | 100 to 500 | O=c1cc(N2CCOCC2)cc(-c2cccc3c2Oc2ccc(NC4CCN(CCc5ccc(CO)cc5)CC4)cc2C3)[nH]1 [Example 2-30-17, 6-(7-((1-(4-(Hydroxymethyl)phenethyl)piperidin-4-yl)amino)-9H-xanthen-4-yl)-4-morpholino pyridin-2 (1H)-one]
